Assay results: patent publication US10093683B2, “Factor XIa inhibitors” (Merck Sharp & Dohme Corp., priority 2014, dated 2018)

target: human Factor XIa (Homo sapiens (Human), UniProt P03951); experiment: Factor XIa Assay; assay type: biochemical; settings: purified human Factor XIa 40 pM, Z-Gly-Pro-Arg-AFC 100 μM, pH 7.4; read-out: FXIa Ki
Procedure: The effectiveness of a compound of the present invention as an inhibitor of Coagulation Factor XIa can be determined using a relevant purified serine protease, and an appropriate synthetic substrate. The rate of hydrolysis of the chromogenic or fluorogenic substrate by the relevant serine protease was measured both in the absence and presence of compounds of the present invention. Assays were conducted at room temperature or at 37° C. […] A decrease in the rate of fluorescence change in the presence of inhibitor is indicative of enzyme inhibition. Such methods are known to one skilled in the art. The results of this assay are expressed as the inhibitory constant, Ki.
Factor XIa determinations were made in 50 mM HEPES buffer at pH 7.4 containing 150 mM NaCl, 5 mM CaCl2, and 0.1% PEG 8000 (polyethylene glycol; JT Baker or Fisher Scientific). Determinations were made using purified human Factor XIa at a final concentration of 40 pM (Sekisui Diagnostics) and he synthetic substrate, Z-Gly-Pro-Arg-AFC, TFA salt (Sigma #C0980) at a concentration of 100 μM.
Times required to achieve equilibration between enzyme and inhibitor were determined in control experiments. Initial velocities of product formation in the absence (Vo) or presence of inhibitor (Vi) were measured. Assuming competitive inhibition, and that unity is negligible compared Km/[S], [I]/e, and [I]/e (where [S], [I], and e respectively represent the total concentrations, of substrate, inhibitor and enzyme), the equilibrium constant (Ki) for dissociation of the inhibitor from the enzyme can be obtained from the dependence of Vo/Vi on [I] shown in the following equation.

human Factor XIa, sequence (P03951 388-625): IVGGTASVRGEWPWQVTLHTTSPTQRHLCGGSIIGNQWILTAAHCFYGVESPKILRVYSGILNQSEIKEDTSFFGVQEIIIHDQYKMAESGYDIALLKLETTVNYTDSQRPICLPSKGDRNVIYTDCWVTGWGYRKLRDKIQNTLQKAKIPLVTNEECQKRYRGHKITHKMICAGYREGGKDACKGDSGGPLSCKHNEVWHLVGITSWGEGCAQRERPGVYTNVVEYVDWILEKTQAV
human Factor XIa, sequence (P03951 19-387 partner): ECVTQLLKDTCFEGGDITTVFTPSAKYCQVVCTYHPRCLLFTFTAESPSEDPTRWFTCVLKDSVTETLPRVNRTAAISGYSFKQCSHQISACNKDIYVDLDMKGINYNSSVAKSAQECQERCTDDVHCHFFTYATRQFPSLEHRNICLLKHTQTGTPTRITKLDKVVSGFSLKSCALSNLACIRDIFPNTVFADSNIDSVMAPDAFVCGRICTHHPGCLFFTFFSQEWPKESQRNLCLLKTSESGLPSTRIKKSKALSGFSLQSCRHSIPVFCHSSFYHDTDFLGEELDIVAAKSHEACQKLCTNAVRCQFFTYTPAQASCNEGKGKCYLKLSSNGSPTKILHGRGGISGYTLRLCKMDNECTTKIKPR

**Q.** With `COC(=O)Nc1ccc(C(=O)N[C@@H](Cc2ccccc2)C(=O)N2CCC[C@@]3(C2)OC(=O)Nc2ccc(C4CC4)c(F)c23)cc1` [Example 17, methyl (4-(((S)-1-((R)-6-cyclopropyl-5-fluoro-2-oxo-1,2-dihydrospiro[benzo[d][1,3]oxazine-4,3′-piperidin]-1′-yl)-1-oxo-3-phenylpropan-2-yl)carbamoyl)phenyl)carbamate] as the compound, how does the Ki read?
**A.** 37.4 nM

**Q.** How did the Ki turn out when `COC(=O)Nc1ccc(C(=O)N[C@@H](Cc2ccccc2)C(=O)N2CCC3(CC(=O)Nc4ccc(Cl)cc43)C2)cc1` (stereo partly drawn) [Example 18, methyl (4-(((2S)-1-(6′-chloro-2′-oxo-2′,3′-dihydro-1′H-spiro[pyrrolidine-3,4′-quinolin]-1-yl)-1-oxo-3-phenylpropan-2-yl)carbamoyl)phenyl)carbamate] was run?
**A.** 5000 nM

**Q.** How did the Ki turn out when `COC(=O)Nc1ccc(C(=O)N[C@@H](CC2CC2)C(=O)N2CC[C@]3(C2)OC(=O)Nc2ccc(Cl)cc23)cc1` [Example 21a, methyl (4-(((S)-1-((S)-6-chloro-2-oxo-1,2-dihydrospiro[benzo[d][1,3]oxazine-4,3′-pyrrolidin]-1′-yl)-3-cyclopropyl-1-oxopropan-2-yl)carbamoyl)phenyl)carbamate] was run?
**A.** 726 nM

**Q.** For `COC(=O)Nc1ccc(C(=O)N[C@@H](CC2CC2)C(=O)N2CC[C@@]3(C2)OC(=O)Nc2ccc(Cl)cc23)cc1` [Example 21b, methyl (4-(((S)-1-((R)-6-chloro-2-oxo-1,2-dihydrospiro[benzo[d][1,3]oxazine-4,3′-pyrrolidin]-1′-yl)-3-cyclopropyl-1-oxopropan-2-yl)carbamoyl)phenyl)carbamate], which Ki is on record?
**A.** 31.2 nM

**Q.** How did the Ki turn out when `COC(=O)Nc1ccc(C(=O)N[C@@](C)(Cc2ccccc2)C(=O)N2CCC3(C2)OC(=O)Nc2ccc(Cl)cc23)cc1` (stereo partly drawn) [Example 24, methyl (4-(((2S)-1-(6-chloro-2-oxo-1,2-dihydrospiro[benzo[d][1,3]oxazine-4,3′-pyrrolidin]-1′-yl)-2-methyl-1-oxo-3-phenylpropan-2-yl)carbamoyl)phenyl)carbamate] was run?
**A.** ≥ 5000 nM

**Q.** For `COC(=O)Nc1ccc(C(=O)N[C@@]2(C(=O)N3CCC4(C3)OC(=O)Nc3ccc(Cl)cc34)C[C@@H]2c2ccccc2)cc1` (stereo partly drawn) [Example 25, methyl (4-(((1S,2R)-1-(6-chloro-2-oxo-1,2-dihydrospiro[benzo[d][1,3]oxazine-4,3′-pyrrolidin]-1′-ylcarbonyl)-2-phenylcyclopropyl)carbamoyl)phenyl)carbamate], which Ki is on record?
**A.** ≥ 5000 nM

**Q.** Which Ki does the source give for `COC(=O)Nc1ccc(C(=O)N[C@H](C(=O)N2CCC3(C2)OC(=O)Nc2ccc(Cl)cc23)c2ccccc2)cc1` (stereo partly drawn) [Example 29, methyl (4-(((1S)-2-(6-chloro-2-oxo-1,2-dihydrospiro[benzo[d][1,3]oxazine-4,3′-pyrrolidin]-1′-yl)-2-oxo-1-phenylethyl)carbamoyl)phenyl)carbamate] here?
**A.** ≥ 5000 nM

**Q.** How did the Ki turn out when `COC(=O)Nc1ccc(C(=O)N[C@H](C(=O)N2CCC3(C2)OC(=O)Nc2ccc(Cl)cc23)[C@H](C)c2ccccc2)cc1` (stereo partly drawn) [Example 33, methyl (4-(((2S,3R)-1-(6-chloro-2-oxo-1,2-dihydrospiro[benzo[d][1,3]oxazine-4,3′-pyrrolidin]-1′-yl)-1-oxo-3-phenylbutan-2-yl)carbamoyl)phenyl)carbamate] was run?
**A.** 4310 nM

**Q.** For `COC(=O)Nc1ccc(C(=O)N[C@@H](CC2CCCCC2)C(=O)N2CCC3(C2)OC(=O)Nc2ccc(Cl)cc23)cc1` (stereo partly drawn) [Example 34, methyl (4-(((2S)-1-(6-chloro-2-oxo-1,2-dihydrospiro[benzo[d][1,3]oxazine-4,3′-pyrrolidin]-1′-yl)-3-cyclohexyl-1-oxopropan-2-yl)carbamoyl)phenyl)carbamate], which Ki is on record?
**A.** 90 nM

**Q.** With `COC(=O)Nc1ccc(C(=O)N[C@@H](CCC(F)(F)F)C(=O)N2CCC[C@@]3(C2)OC(=O)Nc2ccc(Cl)c(F)c23)cc1` [Example 36, methyl (4-(((S)-1-((R)-6-chloro-5-fluoro-2-oxo-1,2-dihydrospiro[benzo[d][1,3]oxazine-4,3′-piperidin]-1′-yl)-5,5,5-trifluoro-1-oxopentan-2-yl)carbamoyl)phenyl)carbamate] as the compound, how does the Ki read?
**A.** 84.4 nM
